According to ChEMBL document CHEMBL1156406, “New Xenia diterpenoids from the Indonesian soft coral Xenia sp” (J Nat Prod, 2002):

How the values were obtained:
Assay type in all cases: functional, cell-based
HT-29 = assay: Cytotoxicity against human HT-29 cells
A549 = assay: Cytotoxicity against human A549 cells
P388 = assay: Cytotoxicity against mouse P388 cells
SK-MEL-28 = assay: Cytotoxicity against human SK-MEL-28 cells

Measured: IC50

C=C1CC[C@@H]2/C(=C/C=C/C(C)(C)O)C(=O)OC[C@H]2C(=C)CC[C@@H]1O
> 1 µg/mL: HT-29 | A549 | P388 | SK-MEL-28

C=C1CC[C@@H]2/C(=C/C=C/C(C)(C)O)C(=O)OC[C@H]2C(=C)C[C@@H](O)[C@@H]1O
> 1 µg/mL: HT-29 | A549 | P388 | SK-MEL-28

C=C1C[C@@H](O)C2OC2(C)CC[C@@H]2/C(=C/C=C/C(C)(C)O)C(=O)OC[C@@H]12 (stereo partly specified)
> 1 µg/mL: HT-29 | A549 | P388 | SK-MEL-28

C=C1C[C@@H](O)/C=C(\C)CC[C@@H]2/C(=C/C=C/C(C)(C)O)C(=O)OC[C@@H]12 [ISOXENIOLIDE A]
> 1 µg/mL: HT-29 | A549 | P388 | SK-MEL-28
